Laboratory results reported in patent US20240025893A1, “PYRIMIDINE-AND NITROGEN-CONTAINING BICYCLIC COMPOUND” (Asahi Kasei Pharma Corporation, priority 2020, published 2024).

How the values were obtained:
human IRAK-4 = human IRAK-4 (Homo sapiens (Human), UniProt Q9NWZ3); assay: Measurement of human IRAK-4 inhibitory activity (TR-FRET, peptide substrate phosphorylation, 10 μM ATP); type: biochemical; conditions: 1 nM IRAK-4, 10 μM ATP, 23° C., 30 minutes; average values
Method in brief: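 With 1 nM IRAK-4, 0.5 μM biotinylated peptide and 10 μM ATP, compound incubated 30 min at 23 °C in 50 mM HEPES pH 7.2 with Mg2+/Mn2+. Stopped with EDTA plus europium-cryptate anti-phosphopeptide antibody and streptavidin-XL665, 60 min at 23 °C. Activity taken as the 665/620 nm TR-FRET ratio.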

[1] = test system: LPS-stimulated TNFα production in THP-1 cells; assay: LPS-stimulated TNFα production inhibition test using human acute monocytic leukemia cell strain THP-1; type: cell-based; conditions: Homo sapiens, THP-1, 4 h, LPS 2.5 ng/mL, average values
Method in brief: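 THP-1 cells were preincubated with compound for 1 h at 37 °C, then stimulated with LPS (2.5 ng/mL final) for 4 h. Supernatant TNFα was quantified by HTRF (620/665 nm ratio) against a calibration curve. IC50 came from a 4-parameter logistic fit, with no-LPS set as 100% and no-compound as 0% suppression.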

Sequence of human IRAK-4 (Q9NWZ3 whole entry): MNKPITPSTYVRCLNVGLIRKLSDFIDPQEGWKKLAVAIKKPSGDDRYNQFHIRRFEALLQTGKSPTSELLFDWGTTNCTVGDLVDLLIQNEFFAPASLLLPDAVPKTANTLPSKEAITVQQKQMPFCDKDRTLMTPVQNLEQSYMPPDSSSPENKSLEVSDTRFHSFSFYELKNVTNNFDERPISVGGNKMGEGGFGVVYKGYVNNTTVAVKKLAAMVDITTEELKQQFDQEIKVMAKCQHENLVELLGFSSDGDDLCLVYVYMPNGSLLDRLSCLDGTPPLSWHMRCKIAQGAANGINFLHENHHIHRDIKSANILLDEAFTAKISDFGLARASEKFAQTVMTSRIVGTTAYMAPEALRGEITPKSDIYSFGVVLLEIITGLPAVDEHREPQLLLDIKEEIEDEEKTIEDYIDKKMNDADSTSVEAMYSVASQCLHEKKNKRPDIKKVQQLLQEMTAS

SMILES | IC50 (human IRAK-4) | IC50 [1]
CN(C1CC(C(=O)Nc2nc3ccc(-c4cnc(CO[C@H]5CCC[C@@H]5O)nc4)cc3s2)C1)[C@@H]1C[C@H]1C(F)(F)F (stereo partly drawn) [b-03-07] | 5.26 nM | 183 nM
CN(C1CC(C(=O)Nc2nc3ccc(-c4cnc(CO[C@H]5CCC[C@@H]5O)nc4)cc3s2)C1)C1CC(F)(F)C1 (stereo partly drawn) [b-03-08] | 2.68 nM | 127 nM
CN(c1cnn(C)c1)C1CC(C(=O)Nc2nc3ccc(-c4cnc(CO[C@H]5CCC[C@@H]5O)nc4)cc3s2)C1 (stereo partly drawn) [b-03-09] | 2.21 nM | 143 nM
C[C@H]1CN(C(=O)OC(C)(C)C)CCN1[C@H]1C[C@@H](C(=O)Nc2nc3ccc(-c4cnc(CO[C@H]5CCC[C@@H]5O)nc4)cc3s2)C1 [b-04-01, tert-Butyl (S)-4-((1S,3R)-3-((6-(2-((((1S,2S)-2-hydroxycyclopentyl)oxy)methyl)pyrimidin-5-yl)benzo[d]thiazol-2-yl)carbamoyl)cyclobutyl)-3-methylpiperazine-1-carboxylate] | 5.49 nM | 51 nM
C[C@H]1CN(C(=O)C23CC(C#N)(C2)C3)CCN1[C@H]1C[C@@H](C(=O)Nc2nc3ccc(-c4cnc(CO[C@H]5CCC[C@@H]5O)nc4)cc3s2)C1 [b-04-03] | 3.21 nM | 46 nM
C[C@H]1CN(C(=O)CC2CCOCC2)CCN1[C@H]1C[C@@H](C(=O)Nc2nc3ccc(-c4cnc(CO[C@H]5CCC[C@@H]5O)nc4)cc3s2)C1 [b-04-04] | 2.69 nM | 49 nM
C[C@H]1CN(C(=O)C2CCCO2)CCN1[C@H]1C[C@@H](C(=O)Nc2nc3ccc(-c4cnc(CO[C@H]5CCC[C@@H]5O)nc4)cc3s2)C1 (stereo partly drawn) [b-04-05] | 2.85 nM | 54 nM
C[C@H]1CN(C(=O)C2CCOC2)CCN1[C@H]1C[C@@H](C(=O)Nc2nc3ccc(-c4cnc(CO[C@H]5CCC[C@@H]5O)nc4)cc3s2)C1 (stereo partly drawn) [b-04-07] | 2.6 nM | 60 nM
C[C@H]1CN(C(=O)C2CCOCC2)CCN1[C@H]1C[C@@H](C(=O)Nc2nc3ccc(-c4cnc(CO[C@H]5CCC[C@@H]5O)nc4)cc3s2)C1 [b-04-09] | 2.58 nM | 55 nM
C[C@H]1CN(C(=O)C23CC(C2)C3)CCN1[C@H]1C[C@@H](C(=O)Nc2nc3ccc(-c4cnc(CO[C@H]5CCC[C@@H]5O)nc4)cc3s2)C1 [b-04-10] | 3.94 nM | 30 nM
CC(C)[C@H]1CN(C(=O)C2CCOC2)CCN1C1CC(C(=O)Nc2nc3ccc(-c4cnc(CO[C@H]5CCC[C@@H]5O)nc4)cc3s2)C1 (stereo partly drawn) [b-04-17] | 1.58 nM | 22 nM
CC[C@H]1CN(C(=O)C2CCOC2)CCN1C1CC(C(=O)Nc2nc3ccc(-c4cnc(CO[C@H]5CCC[C@@H]5O)nc4)cc3s2)C1 (stereo partly drawn) [b-04-18] | 1.11 nM | 30 nM
C[C@H]1CN(C(=O)[C@@H]2CCOC2)CCN1[C@H]1C[C@@H](C(=O)Nc2nc3ccc(-c4cnc(CO[C@H]5CCC[C@@H]5O)nc4)cc3s2)C1 [b-04-22] | 1.3 nM | 50 nM
C[C@H]1CN(C(=O)[C@H]2CCOC2)CCN1[C@H]1C[C@@H](C(=O)Nc2nc3ccc(-c4cnc(CO[C@H]5CCC[C@@H]5O)nc4)cc3s2)C1 [b-04-23] | 1.41 nM | 54 nM

The remaining lines, values ahead:

IC50 (human IRAK-4) | IC50 [1] | SMILES
1.4 nM | 21 nM | Cc1cc(C(=O)N2CCN([C@H]3C[C@@H](C(=O)Nc4nc5ccc(-c6cnc(CO[C@H]7CCC[C@@H]7O)nc6)cc5s4)C3)[C@@H](C)C2)ccn1 [b-04-02, (1R,3s)-N-(6-(2-((((1S,2S)-2-Hydroxycyclopentyl)oxy)methyl)pyrimidin-5-yl)benzo[d]thiazol-2-yl)-3-((S)-2-methyl-4-(2-methylisonicotinoyl)piperazin-1-yl)cyclobutane-1-carboxamide]
2.37 nM | 64 nM | COCCOCC(=O)N1CCN([C@H]2C[C@@H](C(=O)Nc3nc4ccc(-c5cnc(CO[C@H]6CCC[C@@H]6O)nc5)cc4s3)C2)[C@@H](C)C1 [b-04-06]
2.48 nM | 53 nM | CCOCC(=O)N1CCN([C@H]2C[C@@H](C(=O)Nc3nc4ccc(-c5cnc(CO[C@H]6CCC[C@@H]6O)nc5)cc4s3)C2)[C@@H](C)C1 [b-04-08]
1.89 nM | 38 nM | C[C@H]1CN(C(=O)c2ccccn2)CCN1[C@H]1C[C@@H](C(=O)Nc2nc3ccc(-c4cnc(CO[C@H]5CCC[C@@H]5O)nc4)cc3s2)C1 [b-04-11]
1.93 nM | 39 nM | C[C@H]1CN(C(=O)c2cccnc2)CCN1[C@H]1C[C@@H](C(=O)Nc2nc3ccc(-c4cnc(CO[C@H]5CCC[C@@H]5O)nc4)cc3s2)C1 [b-04-12]
1.7 nM | 27 nM | C[C@H]1CN(C(=O)c2ccncc2)CCN1[C@H]1C[C@@H](C(=O)Nc2nc3ccc(-c4cnc(CO[C@H]5CCC[C@@H]5O)nc4)cc3s2)C1 [b-04-13]
1.5 nM | 25 nM | C[C@H]1CN(C(=O)c2ccc(C(F)(F)F)cn2)CCN1[C@H]1C[C@@H](C(=O)Nc2nc3ccc(-c4cnc(CO[C@H]5CCC[C@@H]5O)nc4)cc3s2)C1 [b-04-14]
1.61 nM | 28 nM | CC(C)[C@H]1CN(C(=O)c2ccccn2)CCN1C1CC(C(=O)Nc2nc3ccc(-c4cnc(CO[C@H]5CCC[C@@H]5O)nc4)cc3s2)C1 (stereo partly drawn) [b-04-15]
1.51 nM | 23 nM | CC[C@H]1CN(C(=O)c2ccccn2)CCN1C1CC(C(=O)Nc2nc3ccc(-c4cnc(CO[C@H]5CCC[C@@H]5O)nc4)cc3s2)C1 (stereo partly drawn) [b-04-16]
1.38 nM | 39 nM | C[C@H]1CN(C(=O)c2cccc(C(F)(F)F)n2)CCN1[C@H]1C[C@@H](C(=O)Nc2nc3ccc(-c4cnc(CO[C@H]5CCC[C@@H]5O)nc4)cc3s2)C1 [b-04-19]
1.12 nM | 39 nM | COc1cccc(C(=O)N2CCN([C@H]3C[C@@H](C(=O)Nc4nc5ccc(-c6cnc(CO[C@H]7CCC[C@@H]7O)nc6)cc5s4)C3)[C@@H](C)C2)n1 [b-04-20]
1.15 nM | 33 nM | Cc1cccc(C(=O)N2CCN([C@H]3C[C@@H](C(=O)Nc4nc5ccc(-c6cnc(CO[C@H]7CCC[C@@H]7O)nc6)cc5s4)C3)[C@@H](C)C2)n1 [b-04-21]
0.76 nM | 95 nM | CCCOCc1ncc(-c2ccc3nc(NC(=O)[C@H]4C[C@@H](N5CCN(C(=O)c6ccccn6)C[C@@H]5C)C4)sc3c2)cn1 [b-04-24]
0.88 nM | 71 nM | CCCOCc1ncc(-c2ccc3nc(NC(=O)[C@H]4C[C@@H](N5CCN(C(=O)C6CCOC6)C[C@@H]5C)C4)sc3c2)cn1 (stereo partly drawn) [b-04-25]
1.22 nM | 86 nM | CCCOCc1ncc(-c2ccc3nc(NC(=O)[C@H]4C[C@@H](N5CCN(C(=O)c6ccc(C(F)(F)F)cn6)C[C@@H]5C)C4)sc3c2)cn1 [b-04-26]
1.6 nM | 108 nM | Cc1noc(C)c1C(=O)N1CCN([C@H]2C[C@@H](C(=O)Nc3nc4ccc(-c5cnc(CO[C@H]6CCC[C@@H]6O)nc5)cc4s3)C2)[C@@H](C)C1 [b-04-27]
1.58 nM | 72 nM | C[C@H]1CN(C(=O)c2ccnnc2)CCN1[C@H]1C[C@@H](C(=O)Nc2nc3ccc(-c4cnc(CO[C@H]5CCC[C@@H]5O)nc4)cc3s2)C1 [b-04-28]
1.6 nM | 55 nM | Cc1oncc1C(=O)N1CCN([C@H]2C[C@@H](C(=O)Nc3nc4ccc(-c5cnc(CO[C@H]6CCC[C@@H]6O)nc5)cc4s3)C2)[C@@H](C)C1 [b-04-29]
1.49 nM | 62 nM | C[C@H]1CN(C(=O)c2cccnc2C(F)(F)F)CCN1[C@H]1C[C@@H](C(=O)Nc2nc3ccc(-c4cnc(CO[C@H]5CCC[C@@H]5O)nc4)cc3s2)C1 [b-04-30]
